Measurements published in patent publication US5140025A, “Thienotricylene for the treatment of bronchial diseases” (BYK Gulden Lomberg Chemische Fabrik GmbH, priority 1987, dated 1992).
Where two headings read alike, the source gives them in different places.

Columns and labels:
[1] = molecular target: M1 receptor (ganglionic); experiment: Receptor affinity, electrically stimulated rabbit vas deferens in organ bath; details: vas deferens of the rabbit, agonist McN-A-343, Schild slope normalised to 1.00
Experimental: Isometric contractions (HSE force transducer, K-30; tilt and zones, BD-9 chart recorder) of isolated seminal duct sections of rabbits (male, white New Zealand rabbits, 2.5-3.5 kg) were recorded in an organ bath (10 ml, 31° C., gassing with carbogen, initial tension of the organs 0.75 g) under electrical stimultion (HSE stimulator; hook-shaped Pt electrode 1 cm below the water surface of the bath; 30 V, 0.5 ms, 0.05 Hz). After an equilibration time of 30 minutes, cumulative dose/response curves of McN-A-343 (10^-7 -2×10^-6 M) were recorded simultaneously on 8 organ sections in each case (control curves), using the technique described by van Rossum (1963). After 3 control curves, a fixed concentration of the agonist (for example 5×10^-7, 10^-6, 3×10^-6, 10^-5 or 3×10^-5 M) per organ section was applied and, after stabilisation of the effect, increasing concentrations of the agonist to be tested were added. The nutrient solution used had the following composition (mM): NaCl 118, KCl 4.7, CaCl2 ·2H2 O 2.5, MgSO4 ·7H2 O 0.6, KH2 PO 4 1.2, NaHCO3 25.0 and glucose 11.1. In order to block α2 -adrenoreceptors, the nutrient solution additionally contained 10^-6 M yohimbine.
The Tyrode nutrient solution used had the following composition (mM): NaCl 130, KCl 2.0, CaCl2 ·2H2 O 1.8, MgCl2 ·6H2 O 0.98, NaHCO3 12.0, NaH2 PO4 0.42 and glucose monohydrate 5.6. pA2 values (-log of the molar dissociation constants of the competitive antagonist-receptor complex) were determined by linear regression using the Schild plot: pA2 =-log [B/(x-1)], (Arunlakshana and Schild, 1959).

[2] = system: acetylcholine-induced asthma attacks; experiment: Acetylcholine-induced asthma attacks in the conscious guinea pig, oral administration; format: in vivo, guinea pig (Pirbright White); details: 30 min after administration; for Number of animals, latency period tripled (= protected): 10 animals used
Excerpt: Effect of orally administered (±)-telenzepine on acetylcholine-induced asthma attacks in the conscious guinea pig
As described by R. Beume, U. Kilian, N. Kolassa, K. Mussler, Atemw.-Lungenkrkh., 11, 342-345, 1985 ("The testing of bronchospasmolytic substances in conscious guinea pigs").
Pirbright White, Interfauna (Tuttlingen), 250-450 g, male, 10 animals per dose and experiment.
Thoracographic measurement of the respiratory activity, measurement of the latency period from the beginning of acetylcholine nebulisation to the beginning of the asthma attack; determination of the number of animals for which, 30 minutes after administration, the latency period of the experimental attack has been at least tripled in relation to the control attack; estimation of the approximate ED50 from this.
0.1, 0.3, 1, 3, 10 and 30 μmol/kg (±)-telenzepine p.o. (in 4% Methocel, administered in 0.9% NaCl); acetylcholine 0.09% in 0.9% NaCl by inhalatin (ultrasonic nebulisation).
The number of animals for which there is at least a tripling of the latency period of the acetylcholine-induced experimental attack in comparison with the control attack as a function of the perorally administered (±)-telenzepine dose is expressed as follows: […]

[3] = system: acetylcholine-induced bronchospasm; experiment: Acetylcholine-induced bronchospasm in anaesthetised, spontaneously breathing guinea pigs, intravenous administration; format: in vivo, guinea pig (Pirbright White); details: for Mean bronchospasmolytic activity, percentage increase of Vmaxe vs control spasm / Mean bronchospasmolytic activity, percentage increase of tidal volume (TV) vs control spasm: 0-60 min; for Mean bronchospasmolytic activity, percentage increase of Vmaxe vs control spasm / Mean bronchospasmolytic activity, percentage increase of tidal volume (TV) vs control spasm / Bronchospasmolytic activity, percentage increase of Vmaxe vs control spasm / Bronchospasmolytic activity, percentage increase of tidal volume (TV) vs control spasm: x±SEM, N=10; for ED50: Cavia porcellus, iv, 1 h, mean activity 0-60 min; for Bronchospasmolytic activity, percentage increase of Vmaxe vs control spasm / Bronchospasmolytic activity, percentage increase of tidal volume (TV) vs control spasm: at 60 min
Excerpt: Effect of Intravenously Administered Telenzepine on Acetylchline-Induced Bronchospasms in Anaesthetised, Spontaneously Breathing Guinea Pigs
Method for simultaneously recording pharmacodynamic or toxic effects on interior sensitive receptors and the respiration of guinea pigs (U. Kilian, E. Muller, E. Ch. Dittmann and J. Hamacher, Arzneim.-Forsch. 28, 1699-1708, 1978).
Pirbright White, Interfauna (Tuttlingen), 350-450 g, male.
Ethylurethane 1.2 g/kg i.p. as 12.5% aqueous solution.
Pneumotachogram: Maximum flow velocities of the respiratory air during expiration (Vmaxe, "peak flow"), tidal volume (TV).
Acetylcholine as spasmogen, 0.2-0.3 μmol/kg i.v., dissolved in 0.9% NaCl.
-10 min control spasm, 0 min administration of substance, +2, +10, +20, +30, +60 min test spasms.
Determination of the effect of telenzepine on the parameters (mean and standard error of mean, n=10) and calculation of the bronchospasmolytic activity from this as percentage inhibition of the acetylcholine-induced decrease of Vmaxe and TV by means of time/effect curves. Computation of a dose/response curve of the mean bronchospasmolytic activity during the observation time (0-60 min) from the areas under the time/effect curves and reading of 1 h ED50 values. Determination of a dose/response curve of the bronchospasmolytic activity at time 60 min and reading ED50 values.

pA2 ± SEM, M1 receptor (ganglionic) [1]: 8.86 ± 0.06
SMILES: Cc1scc2c1N(C(=O)CN1CCN(C)CC1)c1ccccc1NC2=O (racemic) [(±)-telenzepine, 4,9-dihydro-3-methyl-4-[(4-methyl-1-piperazinyl)-acetyl]-10H-thieno[3,4-b][1,5]benzodiazepin-10-one]
Number of animals, latency period tripled (= protected) ([2]; 0.1 μmol/kg p.o.): 3 number of animals
Number of animals, latency period tripled (= protected) ([2]; 0.3 μmol/kg p.o.): 5 number of animals
Number of animals, latency period tripled (= protected) ([2]; 1 μmol/kg p.o.): 6 number of animals
Number of animals, latency period tripled (= protected) ([2]; 3 μmol/kg p.o.): 7 number of animals
Number of animals, latency period tripled (= protected) ([2]; 10 μmol/kg p.o.): 9 number of animals
Number of animals, latency period tripled (= protected) ([2]; 30 μmol/kg p.o.): 10 number of animals
ED50 ([2]; Cavia porcellus, po, 0.5 h, 95% Int. in brackets, read-out: approximate ED50 (at least tripling of latency period)): ~0.7 µmol/kg
Mean bronchospasmolytic activity, percentage increase of Vmaxe vs control spasm ([3]; 0.03 μmol/kg i.v.): 7 ± 3%
Mean bronchospasmolytic activity, percentage increase of tidal volume (TV) vs control spasm ([3]; 0.03 μmol/kg i.v.): 7 ± 3%
Mean bronchospasmolytic activity, percentage increase of Vmaxe vs control spasm ([3]; 0.05 μmol/kg i.v.): 22 ± 3%
Mean bronchospasmolytic activity, percentage increase of tidal volume (TV) vs control spasm ([3]; 0.05 μmol/kg i.v.): 26 ± 4%
Mean bronchospasmolytic activity, percentage increase of Vmaxe vs control spasm ([3]; 0.1 μmol/kg i.v.): 61 ± 8%
Mean bronchospasmolytic activity, percentage increase of tidal volume (TV) vs control spasm ([3]; 0.1 μmol/kg i.v.): 68 ± 9%
Mean bronchospasmolytic activity, percentage increase of Vmaxe vs control spasm ([3]; 1 μmol/kg i.v.): 81 ± 4%
Mean bronchospasmolytic activity, percentage increase of tidal volume (TV) vs control spasm ([3]; 1 μmol/kg i.v.): 84 ± 4%
Mean bronchospasmolytic activity, percentage increase of Vmaxe vs control spasm ([3]; 5 μmol/kg i.v.): 75 ± 3%
Mean bronchospasmolytic activity, percentage increase of tidal volume (TV) vs control spasm ([3]; 5 μmol/kg i.v.): 86 ± 2%
ED50 ([3]; read-out: ED50 of mean bronchospasmolytic activity, TV): 0.07 µmol/kg
ED50 ([3]; read-out: ED50 of mean bronchospasmolytic activity, Vmaxe): 0.08 µmol/kg
Bronchospasmolytic activity, percentage increase of Vmaxe vs control spasm ([3]; 0.03 μmol/kg i.v.): 11 ± 4%
Bronchospasmolytic activity, percentage increase of tidal volume (TV) vs control spasm ([3]; 0.03 μmol/kg i.v.): 12 ± 6%
Bronchospasmolytic activity, percentage increase of Vmaxe vs control spasm ([3]; 0.05 μmol/kg i.v.): 25 ± 3%
Bronchospasmolytic activity, percentage increase of tidal volume (TV) vs control spasm ([3]; 0.05 μmol/kg i.v.): 32 ± 5%
Bronchospasmolytic activity, percentage increase of Vmaxe vs control spasm ([3]; 0.1 μmol/kg i.v.): 70 ± 9%
Bronchospasmolytic activity, percentage increase of tidal volume (TV) vs control spasm ([3]; 0.1 μmol/kg i.v.): 78 ± 11%
Bronchospasmolytic activity, percentage increase of Vmaxe vs control spasm ([3]; 1 μmol/kg i.v.): 82 ± 5%
Bronchospasmolytic activity, percentage increase of tidal volume (TV) vs control spasm ([3]; 1 μmol/kg i.v.): 85 ± 5%
Bronchospasmolytic activity, percentage increase of Vmaxe vs control spasm ([3]; 5 μmol/kg i.v.): 80 ± 4%
Bronchospasmolytic activity, percentage increase of tidal volume (TV) vs control spasm ([3]; 5 μmol/kg i.v.): 91 ± 3%
dose range of dose- and time-dependent inhibition of acetylcholine-induced bronchospasm ([3]; i.v.): 0.03-1 μmol/kg i.v.
persistence of maximum effect ([3]; i.v., observation period): ≥ 1 h
